Results published in patent US10544178B2, “Metal complex compound and preparing method and usage thereof” (National Changhua University of Education, priority 2018, dated 2020).

Columns and labels:
[1] = tested on: PC-3 prostatic cancer cell
Procedure: (§1) Pharmacology Research: cytotoxicity research upon PC-3 prostatic cancer and DU145 breast cancer
(§2) Human cell HRMPC performing cell activity of PC-3 prostatic cancer and DU145 breast cancer is placed into PRMI1640 culture medium to be cultured under a temperature of 37° C. in a 5% CO2/95% air. The PRMI1640 culture medium contains 10% FBS and penicillin (100 U/ml)/streptomycin (100 U/ml).
(§3) Subsequently, the cell survivability is quantified through colorimetry (Sulforhodamine B Assay).

Procedure for DU145 breast cancer cell: as §1, §2, §3

| IC50 [1] | IC50 (DU145 breast cancer cell) | Substance |
| --- | --- | --- |
| 4.58 ± 0.32 µM | 14.2 ± 0.35 µM | para-methylisopropylphenylchloride-2-[1-(2-naphthyl)azomethine]phenoxyruthenium [Embodiment 5] |
| 2.39 ± 0.13 µM | 5.37 ± 0.06 µM | para-methylisopropylphenylchloride-1-carbonyl-3-[(2,6-diisopropyl)n-phenyl]-1-phenyl-2-butyleneruthenium [Embodiment 3] |
| 5.66 ± 0.2 µM | 9.31 ± 1.48 µM | para-methylisopropylphenylchloride-1-carbonyl-3-n-phenyl-1-phenyl-2-butyleneruthenium [Embodiment 1] |
| 3.01 ± 1.17 µM | 13.1 ± 0.95 µM | para-methylisopropylphenylchloride-2-[1-para-tolueneimino]phenoxyruthenium [Embodiment 4] |
| > 30 µM | > 30 µM | para-methylisopropylphenylchloride-1-(para-diethylaminophenyl)-3-[(1-methyl-3-indazolyl)imino]-1-oxypropylruthenium [Embodiment 6] |
| 5.68 ± 0.12 µM | 14.3 ± 0.28 µM | para-methylisopropylphenylchloride-1-carbonyl-3-[(2-methoxyl) n-phenyl]-1-phenyl-2-butyleneruthenium [Embodiment 2] |
| – | > 30 µM | para-methylisopropylphenylchloride-2-(2-indazolyl)1-phenyl-1-oxyethylruthenium [Embodiment 7] |
